In paper PMC6804253, “Predicting and Experimentally Validating Hot-Spot Residues at Protein–Protein Interfaces” (ACS Chemical Biology, 2019):

Key:
[1] = system: PPIs of the SKEMPI data set (by PDBID); details: ref SKEMPI, cited from earlier work; for sk_ddG_kJ (SKEMPI experimental ΔΔG of binding, mutation to alanine): single mutation to alanine in the complex of the given PDBID; for sk_ddG_kJ (SKEMPI experimental ΔΔG, mutation to alanine) / sk_ddG_kJ (SKEMPI experimental ΔΔG): single mutation to alanine; for sk_ddG_kJ (SKEMPI experimental ΔΔG, mutation to alanine): PPI given by PDBID, sheet sortedByGroup, r_group DERKH; for sk_ddG_kJ (SKEMPI experimental ΔΔG): complex given by PDBID, mutation by mut_pdb
[2] = system: PPIs of the SKEMPI data set (by PDBID); experiment: SKEMPI experimental ΔΔG, single mutations to alanine; type: binding; details: for sk_class (class of the SKEMPI experimental ΔΔG): ref SKEMPI; for sk_class: class of the SKEMPI experimental ΔΔG
[3] = Positive / Neutral / Negative by ΔΔG threshold 4.184 kJ/mol
[4] = class by ΔΔG threshold 4.184 kJ/mol

Substance	sk_ddG_kJ (SKEMPI experimental ΔΔG, mutation to alanine) [1]	sk_class (class of the SKEMPI experimental ΔΔG) [2, 4]	sk_ddG_kJ (SKEMPI experimental ΔΔG) [1]	sk_class [2]	further results
1A22 IA179A	–	–	–	–	sk_ddG_kJ (SKEMPI experimental ΔΔG of binding, mutation to alanine) [1]: 3.35 kJ; sk_class (class of the SKEMPI experimental ΔΔG) [2, 3]: Neutral (neutral (little effect) 4.184 kJ/mol < ΔΔG > −4.184 kJ/mol)
1A22 KA70A	2.18 kJ	Neutral (neutral (little effect) 4.184 kJ/mol < ΔΔG > −4.184 kJ/mol)	–	–	–
1A22 KA168A	-0.84 kJ	Neutral (neutral (little effect) 4.184 kJ/mol < ΔΔG > −4.184 kJ/mol)	–	–	–
1A22 KA172A	8.37 kJ	Positive (positive (a hot residue) ΔΔG ≥ 4.184 kJ/mol)	–	–	–
1A22 LA9A	–	–	–	–	sk_ddG_kJ (SKEMPI experimental ΔΔG of binding, mutation to alanine) [1]: -0.17 kJ; sk_class (class of the SKEMPI experimental ΔΔG) [2, 3]: Neutral (neutral (little effect) 4.184 kJ/mol < ΔΔG > −4.184 kJ/mol)
1A22 LA15A	–	–	–	–	sk_ddG_kJ (SKEMPI experimental ΔΔG of binding, mutation to alanine) [1]: 0.63 kJ; sk_class (class of the SKEMPI experimental ΔΔG) [2, 3]: Neutral (neutral (little effect) 4.184 kJ/mol < ΔΔG > −4.184 kJ/mol)
1A22 LA45A	–	–	–	–	sk_ddG_kJ (SKEMPI experimental ΔΔG of binding, mutation to alanine) [1]: 5.02 kJ; sk_class (class of the SKEMPI experimental ΔΔG) [2, 3]: Positive (positive (a hot residue) ΔΔG ≥ 4.184 kJ/mol)
1A22 LA73A	–	–	–	–	sk_ddG_kJ (SKEMPI experimental ΔΔG of binding, mutation to alanine) [1]: -0.84 kJ; sk_class (class of the SKEMPI experimental ΔΔG) [2, 3]: Neutral (neutral (little effect) 4.184 kJ/mol < ΔΔG > −4.184 kJ/mol)
1A22 NA12A	–	–	0.42 kJ	Neutral (neutral (little effect) 4.184 kJ/mol < ΔΔG > −4.184 kJ/mol)	–
1A22 NA63A	–	–	1.26 kJ	Neutral (neutral (little effect) 4.184 kJ/mol < ΔΔG > −4.184 kJ/mol)	–
1A22 QA22A	–	–	-0.84 kJ	Neutral (neutral (little effect) 4.184 kJ/mol < ΔΔG > −4.184 kJ/mol)	–
1A22 QA29A	–	–	-2.51 kJ	Neutral (neutral (little effect) 4.184 kJ/mol < ΔΔG > −4.184 kJ/mol)	–
1A22 QA46A	–	–	0.42 kJ	Neutral (neutral (little effect) 4.184 kJ/mol < ΔΔG > −4.184 kJ/mol)	–
1A22 QA68A	–	–	2.51 kJ	Neutral (neutral (little effect) 4.184 kJ/mol < ΔΔG > −4.184 kJ/mol)	–
1A22 QA69A	–	–	-0.21 kJ	Neutral (neutral (little effect) 4.184 kJ/mol < ΔΔG > −4.184 kJ/mol)	–
1A22 QA181A	–	–	1.13 kJ	Neutral (neutral (little effect) 4.184 kJ/mol < ΔΔG > −4.184 kJ/mol)	–
1A22 RA8A	0.84 kJ	Neutral (neutral (little effect) 4.184 kJ/mol < ΔΔG > −4.184 kJ/mol)	–	–	–
1A22 RA16A	1.00 kJ	Neutral (neutral (little effect) 4.184 kJ/mol < ΔΔG > −4.184 kJ/mol)	–	–	–
1A22 RA19A	0.21 kJ	Neutral (neutral (little effect) 4.184 kJ/mol < ΔΔG > −4.184 kJ/mol)	–	–	–
1A22 RA64A	6.69 kJ	Positive (positive (a hot residue) ΔΔG ≥ 4.184 kJ/mol)	–	–	–
1A22 RA178A	10.04 kJ	Positive (positive (a hot residue) ΔΔG ≥ 4.184 kJ/mol)	–	–	–
1A22 RA183A	2.09 kJ	Neutral (neutral (little effect) 4.184 kJ/mol < ΔΔG > −4.184 kJ/mol)	–	–	–
1A22 SA51A	–	–	1.26 kJ	Neutral (neutral (little effect) 4.184 kJ/mol < ΔΔG > −4.184 kJ/mol)	–
